Test results from PubChem BioAssay (NCI).
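Cells were grown in 96-well plates and exposed to each compound for 48 hours at five concentrations; endpoints were interpolated linearly between bracketing concentrations, or set to the highest concentration if not reached. GI50: concentration for 50% inhibition of growth. TGI: total growth inhibition.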

Legend:
Experiment in all cases: inhibition of tumour cell growth, NCI panel, 48 h
SW-620 colon = test system: SW-620 colon
OVCAR-3 ovarian = test system: OVCAR-3 ovarian
K-562 leukemia = test system: K-562 leukemia
M14 melanoma = test system: M14 melanoma
SNB-19 CNS = test system: SNB-19 CNS
UO-31 renal = test system: UO-31 renal
SR leukemia = test system: SR leukemia
TK-10 renal = test system: TK-10 renal
HS 578T breast = test system: HS 578T breast
MCF7 breast = test system: MCF7 breast

Compound: COC(=O)C1Cc2c([nH]c3ccccc23)C=N1 (configuration not stated)
- TGI (SW-620 colon): > 100 µM
- TGI (OVCAR-3 ovarian): > 100 µM
- TGI (K-562 leukemia): > 100 µM
- TGI (M14 melanoma): > 100 µM
- TGI (SNB-19 CNS): > 100 µM
- TGI (UO-31 renal): > 100 µM
- TGI (SR leukemia): > 100 µM
- TGI (TK-10 renal): > 100 µM

Compound: Cc1cccc(C)c1NC(=O)C(=O)C1C(=O)N(c2ccccc2)N=C1N (configuration not stated)
- TGI (SW-620 colon): > 100 µM
- TGI (OVCAR-3 ovarian): > 100 µM
- TGI (K-562 leukemia): > 100 µM
- TGI (M14 melanoma): > 100 µM
- TGI (SNB-19 CNS): > 100 µM
- TGI (UO-31 renal): > 100 µM
- TGI (SR leukemia): > 100 µM
- TGI (TK-10 renal): > 100 µM

Compound: C=C1C(=O)O[C@H]2[C@H]1CC/C(COC(=O)CCC(=O)OC/C1=C/CC[C@@]3(C)O[C@H]3[C@H]3OC(=O)C(=C)[C@@H]3CC1)=C\CC[C@@]1(C)O[C@@H]21
- GI50 (SW-620 colon): 0.602 µM
- TGI (SW-620 colon): 2.1 µM
- GI50 (OVCAR-3 ovarian): 0.599 µM
- TGI (OVCAR-3 ovarian): 1.91 µM
- GI50 (K-562 leukemia): 0.531 µM
- TGI (K-562 leukemia): 4.34 µM
- GI50 (M14 melanoma): 1.6 µM
- TGI (M14 melanoma): 5.32 µM
- GI50 (SNB-19 CNS): 8.46 µM
- TGI (SNB-19 CNS): 25 µM
- GI50 (UO-31 renal): 1.02 µM
- TGI (UO-31 renal): 2.39 µM
- GI50 (HS 578T breast): 2.74 µM
- TGI (HS 578T breast): 16 µM
- GI50 (SR leukemia): 0.345 µM
- TGI (SR leukemia): 2.52 µM
- GI50 (TK-10 renal): 1.75 µM
- TGI (TK-10 renal): 3.38 µM

Compound: N#Cc1c2ccccc2c2nnc3cc(Cl)c(Cl)cc3n12
- GI50 (SW-620 colon): > 100 µM
- TGI (SW-620 colon): > 100 µM
- GI50 (OVCAR-3 ovarian): 33.1 µM
- TGI (OVCAR-3 ovarian): 95.9 µM
- GI50 (K-562 leukemia): 29 µM
- TGI (K-562 leukemia): 89.1 µM
- GI50 (M14 melanoma): > 100 µM
- TGI (M14 melanoma): > 100 µM
- GI50 (UO-31 renal): 23.3 µM
- TGI (UO-31 renal): 65.8 µM
- GI50 (MCF7 breast): 27.5 µM
- TGI (MCF7 breast): 90.3 µM
- GI50 (TK-10 renal): > 100 µM
- TGI (TK-10 renal): > 100 µM

Compound: O=C(NC(=S)NS(=O)(=O)c1ccc(N2N=C3c4ccccc4CC3C2c2cccs2)cc1)c1ccccc1 (configuration not stated)
- GI50 (SW-620 colon): 34.8 µM
- TGI (SW-620 colon): > 100 µM
- GI50 (OVCAR-3 ovarian): 30.6 µM
- TGI (OVCAR-3 ovarian): > 100 µM
- GI50 (M14 melanoma): 21.5 µM
- TGI (M14 melanoma): 58.9 µM
- GI50 (SNB-19 CNS): 46.3 µM
- TGI (SNB-19 CNS): > 100 µM
- GI50 (UO-31 renal): 41.1 µM
- TGI (UO-31 renal): > 100 µM
- GI50 (MCF7 breast): > 100 µM
- TGI (MCF7 breast): > 100 µM
- GI50 (HS 578T breast): 16.1 µM
- TGI (HS 578T breast): 68 µM

Compound: COc1nc2c(nc(N)n2C2OC(CO)C(O)C(O)C2O)c(=O)n1C (configuration not stated)
- TGI (SW-620 colon): > 100 µM
- TGI (OVCAR-3 ovarian): > 100 µM
- TGI (K-562 leukemia): > 100 µM
- TGI (M14 melanoma): > 100 µM
- TGI (SNB-19 CNS): > 100 µM
- TGI (UO-31 renal): > 100 µM
- TGI (SR leukemia): > 100 µM
- TGI (TK-10 renal): > 100 µM

Compound: COC(=O)/C(C#N)=C1\N=NNN1CCCc1ccccc1
- TGI (SW-620 colon): > 100 µM
- TGI (OVCAR-3 ovarian): > 100 µM
- TGI (K-562 leukemia): > 100 µM
- TGI (M14 melanoma): > 100 µM
- TGI (SNB-19 CNS): > 100 µM
- TGI (UO-31 renal): > 100 µM
- TGI (TK-10 renal): > 100 µM

Compound: COc1cc(/C=C/C(=O)c2ccc(Nc3nc(Nc4ccc(F)cc4)nc(Nc4ccc(F)cc4)n3)cc2)cc(OC)c1OC
- GI50 (SW-620 colon): 7.28 µM
- TGI (SW-620 colon): > 100 µM
- GI50 (OVCAR-3 ovarian): > 100 µM
- TGI (OVCAR-3 ovarian): > 100 µM
- GI50 (K-562 leukemia): 3 µM
- TGI (K-562 leukemia): > 100 µM
- GI50 (M14 melanoma): 6.55 µM
- TGI (M14 melanoma): 90.8 µM
- GI50 (SNB-19 CNS): 76.6 µM
- TGI (SNB-19 CNS): > 100 µM
- GI50 (UO-31 renal): 3.75 µM
- TGI (UO-31 renal): > 100 µM
- GI50 (MCF7 breast): 5.26 µM
- TGI (MCF7 breast): > 100 µM
- GI50 (HS 578T breast): 16.7 µM
- TGI (HS 578T breast): > 100 µM
- GI50 (TK-10 renal): 35.8 µM
- TGI (TK-10 renal): > 100 µM

Compound: CNCCNc1nc2ccccc2c2c(=O)c3cccc(OC)c3sc12
- GI50 (SW-620 colon): 0.575 µM
- TGI (SW-620 colon): 2.11 µM
- GI50 (OVCAR-3 ovarian): 1.52 µM
- TGI (OVCAR-3 ovarian): 3.02 µM
- GI50 (K-562 leukemia): 0.596 µM
- TGI (K-562 leukemia): 2.65 µM
- GI50 (M14 melanoma): 1.59 µM
- TGI (M14 melanoma): 3.01 µM
- GI50 (UO-31 renal): 0.38 µM
- TGI (UO-31 renal): 2.08 µM
- GI50 (MCF7 breast): 1.17 µM
- TGI (MCF7 breast): 2.59 µM
- GI50 (HS 578T breast): 1.57 µM
- TGI (HS 578T breast): 3.97 µM

Compound: Cc1ccccc1NC(=O)c1[nH]c(=S)nc(N)c1-c1ccccc1C
- TGI (SW-620 colon): > 100 µM
- TGI (OVCAR-3 ovarian): > 100 µM
- TGI (K-562 leukemia): > 100 µM
- TGI (M14 melanoma): > 100 µM
- TGI (SNB-19 CNS): > 100 µM
- TGI (UO-31 renal): > 100 µM
- TGI (SR leukemia): > 100 µM
- TGI (TK-10 renal): > 100 µM

Compound: N#C/C(=C/N1CCN(C(=O)c2ccco2)C1=S)C(N)=O
- GI50 (SW-620 colon): 22.1 µM
- TGI (SW-620 colon): 81.7 µM
- GI50 (OVCAR-3 ovarian): 19 µM
- TGI (OVCAR-3 ovarian): 59.8 µM
- GI50 (K-562 leukemia): 9.13 µM
- TGI (K-562 leukemia): > 100 µM
- GI50 (M14 melanoma): 16.5 µM
- TGI (M14 melanoma): 43.2 µM
- GI50 (SNB-19 CNS): 36.4 µM
- TGI (SNB-19 CNS): > 100 µM
- GI50 (UO-31 renal): 23.5 µM
- TGI (UO-31 renal): 51.8 µM
- GI50 (MCF7 breast): 1.71 µM
- TGI (MCF7 breast): 21 µM
- GI50 (SR leukemia): 3.03 µM
- TGI (SR leukemia): > 100 µM
- GI50 (TK-10 renal): 12.1 µM
- TGI (TK-10 renal): 53.6 µM

Compound: C[C@H](NC(=O)OC1C2C=CC(O)C1CC2)c1ccccc1 (some centres not stated)
- TGI (OVCAR-3 ovarian): > 100 µM
- TGI (K-562 leukemia): > 100 µM
- TGI (M14 melanoma): > 100 µM
- TGI (SNB-19 CNS): > 100 µM
- TGI (UO-31 renal): > 100 µM
- TGI (SR leukemia): 46.2 µM
- TGI (TK-10 renal): > 100 µM

Compound: Cc1ccc(Cl)cc1Nc1nc(C(F)(F)F)ccc1C(=O)Oc1ccc(Cl)cc1
- GI50 (SW-620 colon): 17 µM
- TGI (SW-620 colon): > 100 µM
- GI50 (OVCAR-3 ovarian): 2.55 µM
- TGI (OVCAR-3 ovarian): 8.81 µM
- GI50 (K-562 leukemia): 4.37 µM
- TGI (K-562 leukemia): 15 µM
- GI50 (M14 melanoma): 18.1 µM
- TGI (M14 melanoma): > 100 µM
- GI50 (SNB-19 CNS): 9.42 µM
- TGI (SNB-19 CNS): > 100 µM
- GI50 (UO-31 renal): 16 µM
- TGI (UO-31 renal): 41.8 µM
- GI50 (MCF7 breast): 16.8 µM
- TGI (MCF7 breast): > 100 µM
- GI50 (HS 578T breast): 3.13 µM
- TGI (HS 578T breast): 14.8 µM
- GI50 (TK-10 renal): 5.57 µM
- TGI (TK-10 renal): 18.6 µM

Compound: O=C(OCCOCCOC(=O)c1c[nH]cc1-c1ccccc1)c1c[nH]cc1-c1ccccc1
- TGI (SW-620 colon): 76.5 µM
- TGI (OVCAR-3 ovarian): 50 µM
- TGI (K-562 leukemia): > 100 µM
- TGI (M14 melanoma): 28.2 µM
- TGI (SNB-19 CNS): 69.9 µM
- TGI (UO-31 renal): 31.4 µM
- TGI (SR leukemia): 55.6 µM
- TGI (TK-10 renal): 80.1 µM

Compound: Cc1ccccc1NC(=O)NC(CC(N)=O)c1ccc2c(c1)nc(-c1cccc(Oc3ccc(C(C)(C)C)cc3)c1)n2CCCN1CCCCC1C (configuration not stated)
- GI50 (SW-620 colon): 1.84 µM
- TGI (SW-620 colon): 3.49 µM
- GI50 (OVCAR-3 ovarian): 2.57 µM
- TGI (OVCAR-3 ovarian): 6.35 µM
- GI50 (M14 melanoma): 1.83 µM
- TGI (M14 melanoma): 3.44 µM
- GI50 (SNB-19 CNS): 1.97 µM
- TGI (SNB-19 CNS): 4.27 µM
- GI50 (UO-31 renal): 16.4 µM
- TGI (UO-31 renal): 31.9 µM
- GI50 (MCF7 breast): 1.92 µM
- TGI (MCF7 breast): 3.54 µM
- GI50 (HS 578T breast): 5.58 µM
- TGI (HS 578T breast): 16.3 µM
- GI50 (TK-10 renal): 4.28 µM
- TGI (TK-10 renal): 9.01 µM

Compound: CCC(=O)O[C@@H]1C2C(OC(C)=O)C34COC(C)([C@@H]3C3C(C[C@]3(C)OC(C)=O)[C@@H](OC(=O)c3ccccc3)C4=O)[C@H](OC(C)=O)[C@@]2(OC(C)=O)C[C@@H]1C (some centres not stated)
- TGI (SW-620 colon): > 100 µM
- TGI (OVCAR-3 ovarian): 82.7 µM
- TGI (M14 melanoma): > 100 µM
- TGI (SNB-19 CNS): 45.8 µM
- TGI (UO-31 renal): > 100 µM
- TGI (SR leukemia): > 100 µM
- TGI (TK-10 renal): 46 µM

Compound: Cc1ccc(S(=O)(=O)N2CCCCC2CCO)cc1 (configuration not stated)
- TGI (SW-620 colon): > 100 µM
- TGI (OVCAR-3 ovarian): > 100 µM
- TGI (K-562 leukemia): > 100 µM
- TGI (M14 melanoma): > 100 µM
- TGI (SNB-19 CNS): > 100 µM
- TGI (UO-31 renal): > 100 µM
- TGI (SR leukemia): > 100 µM
- TGI (TK-10 renal): > 100 µM

Compound: COc1ccccc1NC(=O)C1=C(C)NC(C)=C(C(=O)Nc2ccccc2OC)C1c1ccc(C(C)C)cc1
- TGI (SW-620 colon): > 100 µM
- TGI (OVCAR-3 ovarian): > 100 µM
- TGI (K-562 leukemia): > 1 µM
- TGI (M14 melanoma): > 100 µM
- TGI (SNB-19 CNS): > 100 µM
- TGI (UO-31 renal): > 100 µM
- TGI (SR leukemia): > 100 µM
- TGI (TK-10 renal): > 100 µM
